Measured values published in PubChem BioAssay (NCI).
Several values for one entry are separate records, joined by “and”; a condition that tells them apart may be missing. Equal entries are not always repeated.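 Step 1: Grow cells in 96-well plates. Step 2: Expose to compound for 48 hours at 5 concentrations. Step 3: Interpolate endpoints linearly; if unreached, use highest concentration. GI50 is the concentration that inhibits growth by half. The concentration for full growth arrest is given as TGI.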

Columns and labels:
Experiment in all cases: NCI anticancer screen, dose series, 48 h
SF-539 CNS = test system: SF-539 CNS
HOP-62 NSCLC = test system: HOP-62 NSCLC
UO-31 renal = test system: UO-31 renal
OVCAR-4 ovarian = test system: OVCAR-4 ovarian
NCI-H522 lung = test system: NCI-H522 lung
OVCAR-3 ovarian = test system: OVCAR-3 ovarian
UACC-62 melanoma = test system: UACC-62 melanoma
CCRF-CEM leukemia = test system: CCRF-CEM leukemia
MCF7 breast = test system: MCF7 breast
SF-268 CNS = test system: SF-268 CNS

SMILES | GI50 (SF-539 CNS) | TGI (SF-539 CNS) | GI50 (HOP-62 NSCLC) | TGI (HOP-62 NSCLC) | GI50 (UO-31 renal) | TGI (UO-31 renal) | GI50 (OVCAR-4 ovarian) | TGI (OVCAR-4 ovarian) | GI50 (NCI-H522 lung) | TGI (NCI-H522 lung) | GI50 (OVCAR-3 ovarian) | TGI (OVCAR-3 ovarian) | GI50 (UACC-62 melanoma) | TGI (UACC-62 melanoma) | GI50 (CCRF-CEM leukemia) | TGI (CCRF-CEM leukemia) | GI50 (MCF7 breast) | TGI (MCF7 breast) | GI50 (SF-268 CNS) | TGI (SF-268 CNS)
Cc1ccc(/C=N\NC(=O)c2[nH]c3ccc(F)cc3c2-c2ccccc2)cc1 | 0.0297 µM | 0.965 µM | 0.0422 µM | 5.88 µM | 0.0472 µM | > 46 µM | 0.147 µM | > 100 µM | 0.014 µM | 0.569 µM | 0.0261 µM | 0.0782 µM | 0.0516 µM | > 58.6 µM | 0.0275 µM | > 100 µM | 0.0299 µM | > 100 µM | 0.23 µM | 42.5 µM
C=CC(=O)Nc1cccc(Oc2nc(Nc3ccc(N4CCN(C)CC4)cc3)nc3ccsc23)c1 | 1.62 µM and 1.75 µM | 3.02 µM and 3.23 µM | 3.71 µM and 3.73 µM | > 10 µM and 15.7 µM | 0.962 µM and 1.11 µM | 3.69 µM and 3.38 µM | 2.74 µM and 3.23 µM | > 10 µM and 11.4 µM | 0.43 µM and 1.27 µM | 2.21 µM and 3.04 µM | 2.11 µM and 1.88 µM | 9.29 µM and 4.79 µM | 1.59 µM and 1.74 µM | 3.17 µM and 3.67 µM | 2.6 µM | 9.88 µM | 2.22 µM and 1.72 µM | 8.96 µM and 4.48 µM | 3.48 µM and 2.73 µM | > 10 µM and 12.9 µM
O=C1NC(=O)C(N2C(=O)c3ccccc3C2=O)CC1O (stereo not given) | > 100 µM | > 100 µM | > 100 µM | > 100 µM | > 100 µM | > 100 µM | > 100 µM | > 100 µM | > 100 µM | > 100 µM | > 100 µM | > 100 µM | > 100 µM | > 100 µM | > 100 µM | > 100 µM | > 100 µM | > 100 µM | > 100 µM | > 100 µM
O=C(O)CN1CCN(CC(=O)O)CC(=O)[O][Hg][O]C(=O)C1 | 60.1 µM | > 100 µM | 25.1 µM | > 66.2 µM | 17.5 µM | 31.4 µM | 17.7 µM | 34 µM | 6.75 µM | > 47.6 µM | 16.9 µM | 30.6 µM | 18.3 µM | 32.4 µM | 3.96 µM | 32 µM | 20.3 µM | 45.1 µM | 20.7 µM | 52.6 µM
CNCCCNCCCCNCCCN1C(=O)c2ccc3c4c(ccc(c24)C1=O)C(=O)N(CCCNCc1ccccc1OC)C3=O | 2.04 µM | 6.82 µM | 2.33 µM | 25.6 µM | 4.31 µM | 36.8 µM | 1.7 µM | 9.19 µM | 5.62 µM | 27.2 µM | 2.93 µM | 11.3 µM | 0.711 µM | 5.06 µM | 3.77 µM | 39 µM | 2.77 µM | 13 µM | 3.51 µM | 44.3 µM
O=C1c2c(c3c4ccccc4[nH]c3c3ccc4ccccc4c23)C(=O)N1CCN1CCNCC1 | 1.68 µM | 3.06 µM | 1.81 µM | 3.69 µM | 1.24 µM | 2.53 µM | 1.65 µM | 3.26 µM | 1.75 µM | 3.61 µM | 1.83 µM | 3.48 µM | 1.86 µM | 3.77 µM | 1.33 µM | 4.22 µM | 1 µM | 2.42 µM | 1.86 µM | 4.03 µM
COc1cc2c(cc1OCCCn1c(-c3ccccn3)nc3ccccc31)N=C[C@@H]1CCCN1C2=O | 2.27 µM | 4.98 µM | 2.92 µM | 9.57 µM | 0.474 µM | 2.59 µM | 3.39 µM | > 42.6 µM | 1.76 µM | 6.81 µM | 2.18 µM | 5.11 µM | 1.48 µM | 3.04 µM | 15.7 µM | > 25 µM | 0.632 µM | 3.47 µM | 3.07 µM | 9.79 µM
O=C(O)c1ccc(C(=O)c2ccccc2)c(C(=O)O)c1 | – | > 100 µM | – | > 100 µM | – | > 100 µM | – | > 100 µM | – | > 100 µM | – | > 100 µM | – | > 100 µM | – | > 100 µM | – | > 100 µM | – | > 100 µM
